In assay [1] the test system is adult male cynomolgus monkeys. The format is in vivo. The settings on record: for average increase in MAP between 30 min and 5 h: vehicle 3.5 mmHg; for maximum MAP values (increase from baseline) / maximum Δ MAP: telemetered cynomolgus monkeys; for maximum MAP values (increase from baseline): IV vehicle 22.2 ± 3.5 mmHg; for time for which increases from baseline in MAP above 20 mmHg were sustained: average; for average increase in MAP between 30 min and 5 h after administration: vehicle SC 0.8 mmHg; for maximum Δ MAP: vehicle SC 25.9 ± 1.6 mmHg.

The test system of assay [2] is rat V2 receptor. The settings on record: cell-based functional assays; ref Croston et al., 2023; cited from earlier work.
Assay [3] concerns adult male Sprague Dawley rats. Nature of the assay: Arterial blood pressure by telemetry after SC administration in rats. The format is in vivo. The following applies: conscious telemetered Sprague Dawley rats, n=6.
Assay [4] relates to adult male Wistar rats. Nature of the assay: Skin blood flow. The format is in vivo. The settings on record: anesthetized rats, IV infusion; discussion statement.
In assay [5] the target is human V1a receptors. The settings on record: read-out: EC50 for human V1a; ref Croston et al., 2023; cited from earlier work.
Assay [6] relates to human V2 receptors. The settings on record: ref Croston et al., 2023, cited from earlier work.

Like-named read-outs stand apart in the source and are kept apart here. Some results are limits rather than exact numbers.

For “N-[N-(N-glycylglycyl) glycyl]-8-L-lysinevasopressin [Terlipressin]”, the “time past which MAP increases from baseline above 20 mmHg were not sustained” value in assay [1] (monkeys, IV bolus 0.03 mg/kg, on average) is at most 30 min; in assay [1] (monkeys, IV bolus 0.09 mg/kg, on average) it was at most 30 min; in assay [1] (monkeys, IV bolus 0.17 mg/kg, on average) it was at most 75 min; in assay [1] (monkeys, IV bolus 0.34 mg/kg, on average) it was at most 90 min. Also, the “average increase in MAP between 30 min and 5 h” value in assay [1] (monkeys, IV bolus 0.03 mg/kg) worked out at 6.0 mmHg; in assay [1] (monkeys, IV bolus 0.09 mg/kg) it was 5.8 mmHg; in assay [1] (monkeys, IV bolus 0.17 mg/kg) it was 14.6 mmHg; in assay [1] (monkeys, IV bolus 0.34 mg/kg) it was 14.7 mmHg. For the same substance, the “time after administration by which ΔMAP was negligible” value in assay [1] (monkeys, IV bolus, all treatment groups 0.03 to 0.34 mg/kg, on average) is at most 150 min. In addition, the “maximum MAP values (increase from baseline)” value in assay [1] (IV bolus 0.03 mg/kg) is 29.6 ± 3.6 mmHg; in assay [1] (IV bolus 0.09 mg/kg) it was 29.9 ± 6.2 mmHg; in assay [1] (IV bolus 0.17 mg/kg) it was 50.8 ± 5.6 mmHg; in assay [1] (IV bolus 0.34 mg/kg) it was 41.2 ± 7.5 mmHg.

As usually defined, the EC50 is the concentration that produces a half-maximal response. For the substance “[Phe2,Dab(Lys(Lys(Ac)-[Ala6,Glu9]))8]VT [OCE-205]”, the “activity at the rat V2 receptor” value in assay [2] was “no activity”. The “time for which increases from baseline in MAP above 20 mmHg were sustained” value in assay [1] (monkeys, SC bolus 0.01 mg/kg) worked out at 150 min; in assay [1] (monkeys, SC bolus 0.05 mg/kg) it was 75 min; in assay [1] (monkeys, SC bolus 0.5 mg/kg) it was 300 min. The “average increase in MAP between 30 min and 5 h after administration” value in assay [1] (monkeys, SC bolus 0.01 mg/kg) was 20.6 mmHg; in assay [1] (monkeys, SC bolus 0.05 mg/kg) it was 18.4 mmHg; in assay [1] (monkeys, SC bolus 0.5 mg/kg), 24.8 mmHg. In addition, the “Δ MAP maintained throughout the 8 h of measurement” value in assay [1] (monkeys, SC bolus 0.5 mg/kg, on average) is listed as “above 14 mmHg”. The “maximum Δ MAP” value in assay [1] (SC bolus 0.01 mg/kg) was found to be 36.1 ± 2.1 mmHg; in assay [1] (SC bolus 0.05 mg/kg), 34.9 ± 1.1 mmHg; in assay [1] (SC bolus 0.5 mg/kg), 41.6 ± 6.5 mmHg. Further, the “maximum increase in mean arterial blood pressure vs mean pre-test value” in assay [3] (SC 0.1 mg/kg, at 1 h) was “+22 mmHg”; in assay [3] (SC 0.6 mg/kg, at 2 h), “+22 mmHg”; in assay [3] (SC 4 mg/kg, at 3 and 4 h), “+38 mmHg”; in assay [3] (SC 20 mg/kg, at 4 h), “+46 mmHg”. For the same substance, the “approximately maximal decrease in SBF from baseline” value in assay [4] is listed as about 40%. Further, the EC50 in assay [5] is 700 pM. Besides, in assay [6] (at clinically relevant concentrations), the “activity at human V2 receptors” value was “little to no activity”. Besides, the “activity at the human V2 receptor” value in assay [6] (cell-based functional assays) was “no activity”.

These data come from PMC10440361 (Current Research in Pharmacology and Drug Discovery, 2023).
